What was measured:
[1] = target: T1, Neuronal acetylcholine receptor; alpha3/beta4 (Homo sapiens, UniProt P30926+P32297); assay: Agonist activity at human alpha3beta4 nAChR expressed in CHO cells assessed as calcium flux by calcium4-based FLIPR assay relative to nicotine; type: functional, cell-based
[2] = target: T2, Neuronal acetylcholine receptor; alpha4/beta2 (Homo sapiens, UniProt P17787+P43681); assay: Agonist activity at alpha4beta2 nAChR in human SH-EP1 cells assessed as calcium flux by calcium4-based FLIPR assay relative to nicotine; type: functional, cell-based
[3] = target: T1, Neuronal acetylcholine receptor; alpha3/beta4; assay: Agonist activity at human alpha3beta4 nAChR expressed in CHO cells assessed as calcium flux by calcium4-based FLIPR assay; type: functional, cell-based
[4] = target: Neuronal acetylcholine receptor; alpha4/beta2 (Rattus norvegicus, UniProt P09483+P12390); assay: Displacement of [3H]epibatidine from alpha4beta2 nAChR in Sprague-Dawley rat cortex after 2 hrs by liquid scintillation counting
[5] = target: T2, Neuronal acetylcholine receptor; alpha4/beta2; assay: Agonist activity at alpha4beta2 nAChR in human SH-EP1 cells assessed as calcium flux by calcium4-based FLIPR assay; type: functional, cell-based
[6] = target: Neuronal acetylcholine receptor subunit alpha-7 (Homo sapiens, UniProt P36544); assay: Displacement of [3H]epibatidine from human alpha7 nAChR expressed in CHO cells after 2 hrs by liquid scintillation counting; type: cell-based
[7] = target: T2, Neuronal acetylcholine receptor; alpha4/beta2; assay: Displacement of [3H]nicotine from alpha4beta2 nAChR in human SH-EP1 cells after 2 hrs by liquid scintillation assay; type: cell-based
[8] = target: T1, Neuronal acetylcholine receptor; alpha3/beta4; assay: Displacement of [3H]epibatidine from human alpha3beta4 nAChR expressed in CHO cells after 2 hrs by liquid scintillation counting; type: cell-based

T1 sequence (P30926 whole entry): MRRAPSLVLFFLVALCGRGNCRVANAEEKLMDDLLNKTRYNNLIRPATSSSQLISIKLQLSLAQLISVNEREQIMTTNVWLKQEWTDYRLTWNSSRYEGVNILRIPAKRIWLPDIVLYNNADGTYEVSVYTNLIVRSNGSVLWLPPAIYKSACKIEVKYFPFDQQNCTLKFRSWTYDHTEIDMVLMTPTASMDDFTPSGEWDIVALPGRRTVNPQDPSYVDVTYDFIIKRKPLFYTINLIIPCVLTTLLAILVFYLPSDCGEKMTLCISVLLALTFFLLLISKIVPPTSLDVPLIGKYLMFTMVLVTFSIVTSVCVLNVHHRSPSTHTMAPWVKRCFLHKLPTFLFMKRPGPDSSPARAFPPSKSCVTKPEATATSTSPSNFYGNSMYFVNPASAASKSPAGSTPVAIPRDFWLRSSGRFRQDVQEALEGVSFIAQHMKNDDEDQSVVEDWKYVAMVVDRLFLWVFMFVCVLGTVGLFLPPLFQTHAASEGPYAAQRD
T1 sequence (P32297 whole entry): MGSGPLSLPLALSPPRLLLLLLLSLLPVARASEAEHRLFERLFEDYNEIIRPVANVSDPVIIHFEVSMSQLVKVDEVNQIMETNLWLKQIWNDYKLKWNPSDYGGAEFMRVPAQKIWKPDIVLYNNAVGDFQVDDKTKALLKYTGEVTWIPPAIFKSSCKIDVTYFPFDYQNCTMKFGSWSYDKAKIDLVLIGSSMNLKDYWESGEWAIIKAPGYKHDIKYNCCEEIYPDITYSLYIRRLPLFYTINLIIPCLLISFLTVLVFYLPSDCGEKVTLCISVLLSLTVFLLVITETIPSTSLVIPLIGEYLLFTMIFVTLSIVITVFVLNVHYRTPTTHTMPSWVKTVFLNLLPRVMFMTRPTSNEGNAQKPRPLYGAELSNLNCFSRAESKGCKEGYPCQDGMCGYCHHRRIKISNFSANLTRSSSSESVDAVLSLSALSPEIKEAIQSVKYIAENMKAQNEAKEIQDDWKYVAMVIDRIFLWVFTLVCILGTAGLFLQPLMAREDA
Chain of Neuronal acetylcholine receptor subunit alpha-7 (P36544 whole entry): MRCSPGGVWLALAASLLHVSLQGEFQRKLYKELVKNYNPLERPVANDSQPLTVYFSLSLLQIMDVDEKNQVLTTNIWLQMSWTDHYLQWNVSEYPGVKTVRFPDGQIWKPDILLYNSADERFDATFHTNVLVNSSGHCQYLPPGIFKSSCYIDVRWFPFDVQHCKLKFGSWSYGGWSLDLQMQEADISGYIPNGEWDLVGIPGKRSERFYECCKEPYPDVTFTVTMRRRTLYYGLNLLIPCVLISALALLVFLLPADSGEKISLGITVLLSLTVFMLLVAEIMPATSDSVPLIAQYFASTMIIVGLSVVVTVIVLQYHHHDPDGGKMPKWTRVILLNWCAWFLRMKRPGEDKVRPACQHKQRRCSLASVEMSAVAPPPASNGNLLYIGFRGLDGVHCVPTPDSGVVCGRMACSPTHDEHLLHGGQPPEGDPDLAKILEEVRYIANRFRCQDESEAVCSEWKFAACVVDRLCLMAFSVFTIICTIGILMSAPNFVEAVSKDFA
Chain of Neuronal acetylcholine receptor; alpha4/beta2 (Rattus norvegicus, UniProt P09483+P12390) (P09483 whole entry): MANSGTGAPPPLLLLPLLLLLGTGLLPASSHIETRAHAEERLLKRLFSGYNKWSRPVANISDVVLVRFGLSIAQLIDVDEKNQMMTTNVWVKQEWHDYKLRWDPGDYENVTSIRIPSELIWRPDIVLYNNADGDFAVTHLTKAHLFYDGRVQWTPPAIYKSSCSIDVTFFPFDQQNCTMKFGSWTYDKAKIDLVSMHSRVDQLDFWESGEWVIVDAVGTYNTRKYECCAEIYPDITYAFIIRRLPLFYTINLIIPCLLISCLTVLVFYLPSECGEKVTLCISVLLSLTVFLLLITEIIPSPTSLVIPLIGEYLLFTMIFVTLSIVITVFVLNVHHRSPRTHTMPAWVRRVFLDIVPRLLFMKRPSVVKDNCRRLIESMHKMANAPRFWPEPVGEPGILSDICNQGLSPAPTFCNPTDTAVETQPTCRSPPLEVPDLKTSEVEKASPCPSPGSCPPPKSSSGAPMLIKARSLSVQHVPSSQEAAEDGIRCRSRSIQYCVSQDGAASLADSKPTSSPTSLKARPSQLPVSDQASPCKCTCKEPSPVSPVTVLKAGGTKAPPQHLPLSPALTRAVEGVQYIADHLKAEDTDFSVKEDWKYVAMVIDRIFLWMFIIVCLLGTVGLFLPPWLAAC
Chain of Neuronal acetylcholine receptor; alpha4/beta2 (Rattus norvegicus, UniProt P09483+P12390) (P12390 whole entry): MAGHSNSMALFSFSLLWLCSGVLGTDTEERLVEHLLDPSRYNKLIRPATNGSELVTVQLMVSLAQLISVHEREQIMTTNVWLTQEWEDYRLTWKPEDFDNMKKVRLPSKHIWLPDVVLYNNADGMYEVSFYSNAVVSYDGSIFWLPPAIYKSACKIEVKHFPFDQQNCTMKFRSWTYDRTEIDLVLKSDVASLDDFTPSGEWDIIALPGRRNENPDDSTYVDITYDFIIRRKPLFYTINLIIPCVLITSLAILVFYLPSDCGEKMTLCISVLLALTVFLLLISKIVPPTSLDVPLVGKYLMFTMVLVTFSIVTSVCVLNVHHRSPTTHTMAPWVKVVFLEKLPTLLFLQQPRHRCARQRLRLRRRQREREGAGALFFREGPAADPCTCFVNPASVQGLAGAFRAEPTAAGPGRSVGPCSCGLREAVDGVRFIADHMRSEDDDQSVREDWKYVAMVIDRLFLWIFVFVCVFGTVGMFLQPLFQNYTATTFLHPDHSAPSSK
T2 sequence (P17787 whole entry): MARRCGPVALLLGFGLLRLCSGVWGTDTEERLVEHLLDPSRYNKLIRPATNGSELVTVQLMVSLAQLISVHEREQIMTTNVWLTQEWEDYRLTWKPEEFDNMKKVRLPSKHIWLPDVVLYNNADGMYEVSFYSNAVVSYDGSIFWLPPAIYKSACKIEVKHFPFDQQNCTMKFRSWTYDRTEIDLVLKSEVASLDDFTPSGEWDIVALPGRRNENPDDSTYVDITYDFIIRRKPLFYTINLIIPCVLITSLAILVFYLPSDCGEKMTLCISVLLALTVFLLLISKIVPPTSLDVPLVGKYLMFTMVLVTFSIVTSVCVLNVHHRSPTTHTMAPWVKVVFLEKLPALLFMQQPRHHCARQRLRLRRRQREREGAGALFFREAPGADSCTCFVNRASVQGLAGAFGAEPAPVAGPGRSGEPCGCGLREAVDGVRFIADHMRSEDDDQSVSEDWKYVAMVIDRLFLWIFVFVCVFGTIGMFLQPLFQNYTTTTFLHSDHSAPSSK
T2 sequence (P43681 whole entry): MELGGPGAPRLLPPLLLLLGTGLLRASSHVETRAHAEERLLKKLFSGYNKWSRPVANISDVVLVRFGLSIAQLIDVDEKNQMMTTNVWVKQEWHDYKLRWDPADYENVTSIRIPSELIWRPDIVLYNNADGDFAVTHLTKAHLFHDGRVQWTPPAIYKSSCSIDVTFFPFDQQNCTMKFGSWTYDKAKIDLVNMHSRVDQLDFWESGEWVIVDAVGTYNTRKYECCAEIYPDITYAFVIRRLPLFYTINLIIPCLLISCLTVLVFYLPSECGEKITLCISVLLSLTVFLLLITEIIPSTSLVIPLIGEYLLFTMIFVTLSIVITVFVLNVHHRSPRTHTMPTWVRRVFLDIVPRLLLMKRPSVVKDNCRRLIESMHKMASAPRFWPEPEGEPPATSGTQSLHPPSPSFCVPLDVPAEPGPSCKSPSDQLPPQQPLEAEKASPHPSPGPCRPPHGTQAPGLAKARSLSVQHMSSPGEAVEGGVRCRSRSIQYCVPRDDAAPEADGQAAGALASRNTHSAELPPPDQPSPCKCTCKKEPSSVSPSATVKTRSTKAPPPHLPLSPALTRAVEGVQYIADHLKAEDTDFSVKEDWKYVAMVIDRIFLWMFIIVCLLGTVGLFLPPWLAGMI

Row | SMILES | Emax [1] | Emax [2] | EC50 [3] | Ki [4] | EC50 [5] | Ki [6] | Ki [7] | Ki [8]
1 | O=C(c1ccc(Cl)o1)N1C[C@H]2CN[C@@H](C2)C1 | 100% | 92% | 14 µM | 0.12 µM | 3 µM | 14 µM | 0.016 µM | 5.2 µM
2 | O=C(c1cccnc1)N1CC2CNCC2C1 (configuration not stated) | 55% | 58% | 29 µM | 0.16 µM | 30 µM | 20 µM | 0.49 µM | 4.4 µM
3 | O=C(C1CC1)N1C[C@H]2CN[C@@H](C2)C1 | 140% | 100% | 1.4 µM | 0.01 µM | 1.7 µM | 0.04 µM | 0.007 µM | 0.11 µM
4 | N#Cc1ccc(C(=O)N2CC3CNCC3C2)o1 (configuration not stated) | 14% | 90% | 61 µM | – | 24 µM | > 10 µM | 0.053 µM | 4.8 µM
5 | O=C(C1CC1)N1CC2CNCC(C2)C1 | 160% | 46% | 1.2 µM | 0.002 µM | 0.85 µM | 0.02 µM | 0.001 µM | 0.11 µM
6 | O=C(c1ccccc1)N1CC2CNCC2C1 (configuration not stated) | 18% | 9% | 28 µM | 0.0011 µM | 36 µM | 20 µM | 0.2 µM | 15 µM
7 | O=C(c1ncco1)N1CC2CNCC2C1 (configuration not stated) | 5% | 65% | 79 µM | 0.47 µM | 31 µM | 14 µM | 0.34 µM | 100 µM
8 | Cc1ccoc1C(=O)N1CC2CNCC2C1 (configuration not stated) | 40% | 64% | 23 µM | 0.022 µM | 14 µM | 3.7 µM | 0.032 µM | 2.2 µM
9 | O=C(c1ccc(F)o1)N1C[C@H]2CN[C@@H](C2)C1 | 120% | 120% | 4 µM | 0.12 µM | 1.7 µM | 1.6 µM | 0.012 µM | 0.6 µM
10 | O=C(c1ccc(F)o1)N1CC2CNCC2C1 (configuration not stated) | 55% | 140% | 31 µM | 0.051 µM | 5.8 µM | 1.2 µM | 0.008 µM | 12 µM
11 | O=C(c1occc1Br)N1CC2CNCC2C1 (configuration not stated) | 83% | 90% | 27 µM | 0.008 µM | 4.2 µM | 6.3 µM | 0.002 µM | 3.8 µM
12 | O=C(c1ccncc1)N1CC2CNC(C2)C1 (configuration not stated) | 110% | 8% | 9.2 µM | 0.025 µM | 42 µM | 1.3 µM | – | 1.5 µM
13 | O=C(c1ccc(Br)o1)N1CC2CNCC2C1 (configuration not stated) | 25% | 40% | 29 µM | 0.24 µM | 22 µM | > 10 µM | 0.074 µM | 7.2 µM
14 | Cc1ncoc1C(=O)N1CC2CNCC2C1 (configuration not stated) | 51% | 110% | 33 µM | 0.06 µM | 6.8 µM | 5.9 µM | 0.008 µM | 22 µM
15 | O=C(c1cnco1)N1CC2CNCC2C1 (configuration not stated) | 11% | 110% | 35 µM | 0.13 µM | 4.2 µM | 7.6 µM | 0.11 µM | 11 µM
16 | O=C(c1occc1Cl)N1CC2CNCC2C1 (configuration not stated) | 110% | 79% | 22 µM | 0.012 µM | 17 µM | 2.6 µM | 0.002 µM | 2.4 µM
17 | O=C(c1ccncc1)N1CC2CNCC2C1 (configuration not stated) | 33% | 56% | 32 µM | 0.02 µM | 21 µM | 15 µM | 0.067 µM | 5.4 µM
18 | O=C(c1ccco1)N1CC2CNC(C2)C1 (configuration not stated) | 34% | 65% | 6.9 µM | – | 2.6 µM | 7.8 µM | – | 1.7 µM
19 | O=C(C1CC1)N1CC2CNC(C2)C1 (configuration not stated) | 150% | 100% | 4.2 µM | 0.001 µM | 1.7 µM | 0.35 µM | 0.004 µM | 0.42 µM
20 | COc1ccc(C(=O)N2CC3CNCC(C3)C2)cc1 | 7% | 6% | 28 µM | 0.38 µM | 4.3 µM | 100 µM | 0.06 µM | 27 µM
21 | N#Cc1coc(C(=O)N2CC3CNCC3C2)c1 (configuration not stated) | 21% | 22% | 31 µM | 0.12 µM | 11 µM | 8.6 µM | 0.027 µM | 8.7 µM
22 | O=C(c1ccc(Br)o1)N1C[C@H]2CN[C@@H](C2)C1 | 43% | 50% | 13 µM | 0.085 µM | 4.8 µM | 14 µM | 0.045 µM | 3 µM
23 | O=C(C1CC1)N1C[C@@H]2CN[C@H](C2)C1 | 180% | 130% | 1.8 µM | 0.022 µM | 0.45 µM | 0.21 µM | 0.001 µM | 0.2 µM
24 | Cc1ccc(C(=O)N2CC3CNCC3C2)o1 (configuration not stated) | 7% | 44% | 57 µM | 0.23 µM | 22 µM | 8.2 µM | 0.042 µM | > 10 µM
25 | O=C(c1ccc(Br)o1)N1C[C@@H]2CN[C@H](C2)C1 | 61% | 27% | 16 µM | 0.057 µM | 12 µM | 8.2 µM | 0.009 µM | 1.5 µM
26 | O=C(c1ccco1)N1CC2CNCC2C1 (configuration not stated) | 32% | 170% | 42 µM | 0.053 µM | 4.5 µM | 5.9 µM | – | 72 µM
27 | O=C(c1cc(F)co1)N1CC2CNCC2C1 (configuration not stated) | 17% | 130% | 36 µM | – | 1.4 µM | > 10 µM | 0.032 µM | 8.3 µM
28 | O=C(c1ccoc1)N1CC2CNCC2C1 (configuration not stated) | 31% | 110% | 35 µM | – | 5.8 µM | 100 µM | 0.019 µM | 4.8 µM

From ChEMBL document CHEMBL2176988 (J Med Chem, 2012)
